According to US11512097B2, “Heterocyclic compounds as Delta-5 desaturase inhibitors and methods of use” (Amgen Inc., priority 2019, dated 2022):
pIC50: −log10 of the molar value.

Target: T1, Delta-5-Desaturase (D5D), membrane preparations of D5D-overexpressing HEK293 6E cells (Homo sapiens, UniProt O60427)
T1 construct: expressed in transfected cells; host or cells: HEK293 6E cells (membrane preparation)
Experiment: In vitro measurement of Delta-5-Desaturase inhibitory activity using DGLA-CoA and Arachidonyl-CoA mass spectrometric assays
Assay type: biochemical
Conditions: D5D membrane 10 μg/mL, one-hour incubation, average of at least two independent runs
Protocol: In Vitro Measurement of Delta-5-Desaturase Inhibitory Activity Using DGLA-CoA and Arachidonyl-CoA Mass Spectrometric Assays Membrane preparations of D5D-overexpressing HEK293 6E cells were prepared in which the total protein concentration was 5.6 mg/mL. Stock D5D membrane preparations were diluted in D5D assay buffer (25 mM 2-amino-2-(hydroxymethyl)-1,3-propanediol, pH 7.5 containing 10 mM MgCl2, 1 mM octyl glucoside (SigmaAldrich O-8001), 1 mM tris(2-carboxyethyl)phosphine hydrochloride (SigmaAldrich 646547)) to a final D5D membrane concentration of 10 μg/mL in an assay plate containing serially diluted test compounds. To 15 μL of this D5D preparation was added 15 μL of a substrate solution (0.25 mM NADH (nicotinamide adenine dinucleotide, Roche Diag. 10107735001), 0.25 mM adenosine triphosphate (SigmaAldrich A-3377), 0.05 mM coenzyme A hydrate (SigmaAldrich C-4282), and 0.01 mM DGLA (dihomo-g-linolenic acid, Sigma E-4504) in the same D5D assay buffer. After one-hour incubation at ambient temperature acetonitrile (30 μL) was added to quench the reaction and plates were centrifuged for 10 min @ 3,000 rpm. Mass spectrometric analysis involved a Rapidfire 360 SPE system coupled to an ABSciex API4000 Triple Quadrupole mass spectrometer using a C18 SPE cartridge (G9203-80105) with ionization in negative mode (solvent A=100% water; solvent B=100% acetonitrile, each solvent containing 5 mM ammonium acetate). DGLA-CoA and Arachidonyl-CoA were detected by multiple reaction monitoring (MRM) of the doubly charged parent ions at m/z 526.6 and 525.6, respectively. […] Sx is value from unknown sample, So is value from DMSO alone and Sc is value from no enzyme well. For CRC analysis, the % of inhibitions were analysed with 4 Parameter Logistic Model or Sigmoidal Dose-Response Model using XLfit (IDBS, Guilford, UK). The potency of the test item was expressed as IC50 nM, corresponding to the test item concentration able to inhibit the 50% of the enzyme maximal response. IC50 values were averaged values determined by at least two independent runs. The results presented in Table 15 have been generated with the in vitro assay described above. This assay may be used to test any of the compounds described herein to assess and characterize a compound's ability to inhibit D5D.

T1 sequence (O60427 whole entry, species assumed): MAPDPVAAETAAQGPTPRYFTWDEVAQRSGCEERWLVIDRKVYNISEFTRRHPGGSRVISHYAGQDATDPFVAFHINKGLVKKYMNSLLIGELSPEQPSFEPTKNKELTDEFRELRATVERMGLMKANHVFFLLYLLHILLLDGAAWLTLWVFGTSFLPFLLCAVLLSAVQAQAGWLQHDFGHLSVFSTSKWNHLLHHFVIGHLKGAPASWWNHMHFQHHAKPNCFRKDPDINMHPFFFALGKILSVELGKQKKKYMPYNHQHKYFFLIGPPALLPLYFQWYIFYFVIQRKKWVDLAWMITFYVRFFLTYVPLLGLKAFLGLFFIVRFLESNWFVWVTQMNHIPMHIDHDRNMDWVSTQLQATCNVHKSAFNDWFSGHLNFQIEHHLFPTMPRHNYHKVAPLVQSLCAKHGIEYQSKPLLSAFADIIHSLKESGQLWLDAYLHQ

pIC50	Compound
6.60	Cc1nn2c(=O)c(-c3cnn(CC(F)(F)C(F)(F)F)c3)c(C(F)(F)F)nc2n1C [Example 13, 2,3-dimethyl-6-[1-(2,2,3,3,3-pentafluoropropyl)-1H-pyrazol-4-yl]-5-(trifluoromethyl)-3H,7H-[1,2,4]triazolo[1,5-a]pyrimidin-7-one]
6.61	O=c1c(-c2cnn(CCC(F)(F)F)c2)c(C(F)(F)F)nc2sc(C3CC3)nn12 [Example 12, 2-cyclopropyl-7-(trifluoromethyl)-6-[1-(3,3,3-trifluoropropyl)-1H-pyrazol-4-yl]-5H-[1,3,4]thiadiazolo[3,2-a]pyrimidin-5-one]
7.34	O=c1c(-c2cnn(CC(F)(F)C(F)(F)F)c2)c(C(F)(F)F)nc2sc(CO)cn12 [Example 32, 2-(hydroxymethyl)-6-[1-(2,2,3,3,3-pentafluoropropyl)-1H-pyrazol-4-yl]-7-(trifluoromethyl)-5H-[1,3]thiazolo[3,2-a]pyrimidin-5-one]
7.17	Cn1cnn2c(=O)c(-c3cnn(CC(F)(F)C(F)(F)F)c3)c(C(F)(F)F)nc12 [Example 38, 3-methyl-6-[1-(2,2,3,3,3-pentafluoropropyl)-1H-pyrazol-4-yl]-5-(trifluoromethyl)-3H,7H-[1,2,4]triazolo[1,5-a]pyrimidin-7-one]
6.40	Cc1cn2c(=O)c(-c3cnn(CC(F)(F)C(F)(F)F)c3)c(C(F)(F)F)nc2n1-c1cccc(Cl)n1 [Example 101, 1-(6-chloropyridin-2-yl)-2-methyl-6-[1-(2,2,3,3,3-pentafluoropropyl)-1H-pyrazol-4-yl]-7-(trifluoromethyl)-1H,5H-imidazo[1,2-a]pyrimidin-5-one]
5.44	Cc1cn(C)n2c(=O)c(-c3cnn(CC(F)(F)C(F)(F)F)c3)c(C(F)(F)F)nc12 [Example 18, 1,3-dimethyl-6-[1-(2,2,3,3,3-pentafluoropropyl)-1H-pyrazol-4-yl]-5-(trifluoromethyl)-1H,7H-pyrazolo[1,5-a]pyrimidin-7-one]
6.63	O=c1c(-c2cnn(CCC(F)(F)F)c2)c(C(F)(F)F)nc2n1CCC2 [Example 21, 2-(trifluoromethyl)-3-[1-(3,3,3-trifluoropropyl)-1H-pyrazol-4-yl]-4H,6H,7H,8H-pyrrolo[1,2-a]pyrimidin-4-one]
7.84	O=c1c(-c2cnn(CC(F)(F)C(F)(F)F)c2)c(C(F)(F)F)nc2n1CCS2 [Example 22, 6-[1-(2,2,3,3,3-pentafluoropropyl)-1H-pyrazol-4-yl]-7-(trifluoromethyl)-2H,3H,5H-[1,3]thiazolo[3,2-a]pyrimidin-5-one]
7.43	Cn1c(Cl)cn2c(=O)c(-c3cnn(CCC(F)(F)F)c3)c(C(F)(F)F)nc12 [Example 51, 2-chloro-1-methyl-7-(trifluoromethyl)-6-[1-(3,3,3-trifluoropropyl)-1H-pyrazol-4-yl]-1H,5H-imidazo[1,2-a]pyrimidin-5-one]
5.84	Cc1nn2c(=O)c(-c3cnn(CCC(F)(F)F)c3)c(C(F)(F)F)nc2n1C [Example 14, 2,3-dimethyl-5-(trifluoromethyl)-6-[1-(3,3,3-trifluoropropyl)-1H-pyrazol-4-yl]-3H,7H-[1,2,4]triazolo[1,5-a]pyrimidin-7-one]
7.96	Cc1cn2c(=O)c(-c3cnn(CC(F)(F)C(F)(F)F)c3)c(C(F)(F)F)nc2n1CC#N [Example 86, 2-{2-methyl-5-oxo-6-[1-(2,2,3,3,3-pentafluoropropyl)-1H-pyrazol-4-yl]-7-(trifluoromethyl)-1H,5H-imidazo[1,2-a]pyrimidin-1-yl}acetonitrile]
7.54	Cc1cn2c(=O)c(-c3cnn(C[C@H]4CC4(F)F)c3)c(C(F)(F)F)nc2n1C (single isomer, unassigned) [Example 109]
5.69	Cc1cn2c(=O)c(-c3cnn(CCC(F)(F)F)c3)c(C(F)(F)F)nc2n1CC1CC(F)(F)C1 [Example 82, 1-[(3,3-difluorocyclobutyl)methyl]-2-methyl-7-(trifluoromethyl)-6-[1-(3,3,3-trifluoropropyl)-1H-pyrazol-4-yl]-1H,5H-imidazo[1,2-a]pyrimidin-5-one]
6.80	COCc1cn2c(=O)c(-c3cnn(CCC(F)(F)F)c3)c(C(F)(F)F)nc2n1C [Example 63, 2-(methoxymethyl)-1-methyl-7-(trifluoromethyl)-6-[1-(3,3,3-trifluoropropyl)-1H-pyrazol-4-yl]-1H,5H-imidazo[1,2-a]pyrimidin-5-one]
< 4.17	CN1C(=O)C(C)(C)n2c1nc(C(F)(F)F)c(-c1cnn(CC(F)(F)C(F)(F)F)c1)c2=O [Example 36, 1,3,3-trimethyl-6-[1-(2,2,3,3,3-pentafluoropropyl)-1H-pyrazol-4-yl]-7-(trifluoromethyl)-1H,2H,3H,5H-imidazo[1,2-a]pyrimidine-2,5-dione]
7.44	O=c1c(-c2cnn(CCC(F)(F)F)c2)c(C(F)(F)F)nc2sc(CO)nn12 [Example 46, 2-(hydroxymethyl)-7-(trifluoromethyl)-6-[1-(3,3,3-trifluoropropyl)-1H-pyrazol-4-yl]-5H-[1,3,4]thiadiazolo[3,2-a]pyrimidin-5-one]
5.93	Cc1cn2c(=O)c(-c3cnn(CCC(F)(F)F)c3)c(C(F)(F)F)nc2n1C[C@H]1CC1(F)F (single isomer, unassigned) [Example 116]
6.34	Cc1nn2c(=O)c(-c3cnn(C[C@H]4CC4(F)F)c3)c(C(F)(F)F)nc2s1 (single isomer, unassigned) [Example 111]
6.44	Cn1ccc2nc(C(F)(F)F)c(-c3cnn(CC(F)(F)C(F)(F)F)c3)c(=O)n21 [Example 17, 1-methyl-6-[1-(2,2,3,3,3-pentafluoropropyl)-1H-pyrazol-4-yl]-5-(trifluoromethyl)-1H,7H-pyrazolo[1,5-a]pyrimidin-7-one]
8.42	O=c1c(-c2cnn(CC(F)(F)C(F)(F)F)c2)c(C(F)(F)F)nc2sccn12 [Example 1, 6-[1-(2,2,3,3,3-pentafluoropropyl)-1H-pyrazol-4-yl]-7-(trifluoromethyl)-5H-[1,3]thiazolo[3,2-a]pyrimidin-5-one]
8.43	Cc1cn2c(=O)c(-c3cnn(CCC(F)(F)F)c3)c(C(F)(F)F)nc2n1CC#N [Example 87, 2-[2-methyl-5-oxo-7-(trifluoromethyl)-6-[1-(3,3,3-trifluoropropyl)-1H-pyrazol-4-yl]-1H,5H-imidazo[1,2-a]pyrimidin-1-yl]acetonitrile]
7.77	Cc1cn2c(=O)c(-c3ccc(OCC(F)(F)F)cc3)c(C(F)(F)F)nc2n1C [Example 54, 1,2-dimethyl-6-[4-(2,2,2-trifluoroethoxy)phenyl]-7-(trifluoromethyl)-1H,5H-imidazo[1,2-a]pyrimidin-5-one]
7.94	Cc1cn2c(=O)c(-c3cnn(CCC(F)(F)F)c3)c(C(F)(F)F)nc2n1CCO [Example 83, 1-(2-hydroxyethyl)-2-methyl-7-(trifluoromethyl)-6-[1-(3,3,3-trifluoropropyl)-1H-pyrazol-4-yl]-1H,5H-imidazo[1,2-a]pyrimidin-5-one]
7.62	[2H]C([2H])([2H])n1c(C)cn2c(=O)c(-c3cnn(CC(F)(F)C(F)(F)F)c3)c(C(F)(F)F)nc12 [Example 77, 1-(2H3)methyl-2-methyl-6-[1-(2,2,3,3,3-pentafluoropropyl)-1H-pyrazol-4-yl]-7-(trifluoromethyl)-1H,5H-imidazo[1,2-a]pyrimidin-5-one]
5.03	Cc1cc2nc(C(F)(F)F)c(-c3cnn(CC(F)(F)C(F)(F)F)c3)c(=O)n2n1C [Example 16, 1,2-dimethyl-6-[1-(2,2,3,3,3-pentafluoropropyl)-1H-pyrazol-4-yl]-5-(trifluoromethyl)-1H,7H-pyrazolo[1,5-a]pyrimidin-7-one]
5.80	Cc1nn2c(=O)c(-c3cnn(CC4COC4)c3)c(C(F)(F)F)nc2s1 [Example 29, 2-methyl-6-{1-[(oxetan-3-yl)methyl]-1H-pyrazol-4-yl}-7-(trifluoromethyl)-5H-[1,3,4]thiadiazolo[3,2-a]pyrimidin-5-one]
7.45	Cc1cn2c(=O)c(-c3cnn(CC(F)(F)C(F)(F)F)c3)c(C(F)(F)F)nc2[nH]1 [Example 73, 2-methyl-6-[1-(2,2,3,3,3-pentafluoropropyl)-1H-pyrazol-4-yl]-7-(trifluoromethyl)-1H,5H-imidazo[1,2-a]pyrimidin-5-one]
6.98	Cc1cn2c(=O)c(-c3cnn(CC(F)(F)C(F)(F)F)c3)c(C(F)(F)F)nc2n1CC1COC1 [Example 90, 2-methyl-1-[(oxetan-3-yl)methyl]-6-[1-(2,2,3,3,3-pentafluoropropyl)-1H-pyrazol-4-yl]-7-(trifluoromethyl)-1H,5H-imidazo[1,2-a]pyrimidin-5-one]
